Source: patent US10562869B2, “Oxadiazole compounds” (REMYND NV, priority 2014, dated 2020)

Tested on: M17_3SYN cells
Test: Paraquat-induced cytotoxicity (LDH) in α-synuclein over-expressing M17_3SYN neuroblastoma cells
Assay type: cell-based, human
Conditions: Homo sapiens, Neuroblastoma cell, 48 h, toxicity inhibition (LDH) in M17_3SYN cells challenged with 6 mM paraquat, 2 days; read-out: SYN EC50
Text: A α-synuclein expression plasmid was constructed by subcloning the NcoI/XhoI fragment from 212T-SYN(WT) (Griffioen et al., Biochem Biophys Acta (2006) 1762(3):312-318) containing the cDNA of human wild type α-synuclein correspondingly into a standard mammalian expression vector pcDNA3.1 resulting in plasmid pcDNA3.1-SYNwt. Plasmids pcDNA3.1 and pcDNA3.1-SYNwt were transfected into human neuroblastoma cells (BE-M17; ATCC No. CRL-2267™) using lipofectamine reagent and subsequently, independent clonal cell lines with the plasmids stably integrated into the genome were selected by antibiotic resistance selection (Geneticin (G418)), resulting in cell lines M17.pcDNA3 and M17_3SYN. Overexpression of α-synuclein in the M17_3SYN cell line was confirmed by Western blot analysis.
Due to the high levels of α-synuclein, M17_3SYN cells were sensitive to paraquat, a well-known risk factor Parkinson's disease and of synuclein-dependent neuronal degeneration. Cytotoxicity of cells was measured by quantification of lactate dehydrogenase (LDH) levels. In dead cells, LDH leaked out of the cells into the medium due to a loss of plasma-membrane integrity.
[…], primary pre-cultures of M17.pcDNA3 (as possible control) and M17_3SYN cells were prepared, starting from a stock culture, at a density of 20.000-40.000 cells/cm2 in culture medium (Opti-MEM® Reduced Serum Medium with Phenol Red (Invitrogen, Cat. 31985-047) supplemented with 10% FCS, 1 mM sodium pyruvate, 1×NEAA, 500 μg/ml G418 and 0.5×antibiotic/antimycotic (ABAM)). 3 days later these primary pre-cultures were used as a starting point to make secondary pre-cultures at a density of 50.000-100.000 cells/cm^2. At the day of the experiment these secondary precultures were diluted to ˜0.5·10^6 cells/ml in detection medium (Opti-MEM® Reduced-Serum Medium without Phenol Red (Invitrogen, Cat. 11085-021) supplemented with 10% FCS, 1 mM sodium pyruvate, 1×NEAA, 500 μg/ml G418 and 0.5×ABAM) and 60 μL of this suspension was dispensed per well into a 96-well microtiter plate. After 3 hours of incubation at 37° C./5% CO2 an equal volume of detection medium containing a final concentration of 6 mM Paraquat was added and subsequently incubated for 2 days at 37° C./5% CO2. Then LDH activity was determined using the Promega Cytotox 96 Non-Radioactive cytotoxicity assay (Promega, Cat. G1780), according to the manufacturer's instructions. Cytotoxicity was defined as the ratio of LDH relative to the total LDH in the cells and supernatant.
The assay described above using the M17_3SYN cell line allowed screening compounds for their ability to decrease cytotoxicity in PQ-challenged cells. Compounds of the invention were tested for their ability to decrease toxicity at different concentrations, ranging from low non-effective concentrations to high effective concentrations. Afterwards, a dose-dependent inhibition curve was used to calculate the EC50. A compound was considered to be active in this test when it inhibited toxicity by more than 20% relative to untreated M17_3SYN cells at a concentration of 10 μM or lower.

| Compound | EC50 |
| --- | --- |
| CCOc1ccc(S(=O)(=O)N2CCN(c3nc(Cc4cccc(Cl)c4)no3)CC2)cc1 [Cmpd073, 1-[3-(3-Chloro-benzyl)-[1,2,4]oxadiazol-5-yl]-4-(4-ethoxy-benzenesulfonyl)-piperazine] | 0.033 µM |
| CCOc1ccc(S(=O)(=O)N2CCN(c3nc(Cc4cccc(F)c4)no3)CC2)cc1 [Cmpd091, 1-(4-Ethoxy-benzenesulfonyl)-4-[3-(3-fluoro-benzyl)-[1,2,4]oxadiazol-5-yl]-piperazine] | 0.057 µM |
| COc1ccc(S(=O)(=O)N2CCN(c3nc(Cc4ccnc(C)c4)no3)CC2)cc1 [Cmpd169, 1-(4-Methoxy-benzenesulfonyl)-4-[3-(2-methyl-pyridin-4-ylmethyl)-[1,2,4]oxadiazol-5-yl]-piperazine] | 0.034 µM |
| COc1ccc(S(=O)(=O)N2CCN(c3nc(C(C)(C)C)no3)CC2)cc1 [Cmpd209, 3-(Tert-butyl)-5-(4-((4-methoxyphenyl)sulfonyl)piperazin-1-yl)-1,2,4-oxadiazole] | 0.296 µM |
| COc1ccc(S(=O)(=O)N2CCN(c3nc(Cc4cccc(Cl)c4)no3)CC2)cc1 [Cmpd072, 1-[3-(3-Chloro-benzyl)-[1,2,4]oxadiazol-5-yl]-4-(4-methoxy-benzenesulfonyl)-piperazine] | 0.003 µM |
| CCOc1ccc(S(=O)(=O)N2CCN(c3nc(C(C)(C)c4ccc(F)cc4)no3)CC2)cc1 [Cmpd115, 1-(4-Ethoxy-benzenesulfonyl)-4-{3-[1-(4-fluoro-phenyl)-1-methyl-ethyl]-[1,2,4]oxadiazol-5-yl}-piperazine] | 0.054 µM |
| O=S(=O)(c1ccc(OC(F)F)cc1)N1CCN(c2nc(C(F)(F)c3ccc(F)cc3)no2)CC1 [Cmpd148, 1-{3-[Difluoro-(4-fluoro-phenyl)-methyl]-[1,2,4]oxadiazol-5-yl}-4-(4-difluoromethoxy-benzenesulfonyl)-piperazine] | 0.034 µM |
| O=S(=O)(c1ccc(OC(F)F)cc1)N1CCN(c2nc(Cc3cccc(F)c3)no2)CC1 [Cmpd092, 1-(4-Difluoromethoxy-benzenesulfonyl)-4-[3-(3-fluoro-benzyl)-[1,2,4]oxadiazol-5-yl]-piperazine] | 0.047 µM |
| COc1ccc(S(=O)(=O)N2CCN(c3nc(Cc4ccc(Cl)cc4)no3)CC2)cc1 [Cmpd052, 1-[3-(4-Chloro-benzyl)-[1,2,4]oxadiazol-5-yl]-4-(4-methoxy-benzenesulfonyl)-piperazine] | 0.024 µM |
| O=S(=O)(c1ccc(OC(F)F)cc1)N1CCN(c2nc(C(F)(F)c3ccccc3)no2)CC1 [Cmpd158, 1-(4-Difluoromethoxy-benzenesulfonyl)-4-[3-(difluoro-phenyl-methyl)-[1,2,4]oxadiazol-5-yl]-piperazine] | 0.031 µM |
| O=S(=O)(c1ccc(OC(F)F)cc1)N1CCN(c2nc(C(F)(F)c3ccc(Cl)cc3)no2)CC1 [Cmpd144, 1-{3-[(4-Chloro-phenyl)-difluoro-methyl]-[1,2,4]oxadiazol-5-yl}-4-(4-difluoromethoxy-benzenesulfonyl)-piperazine] | 0.145 µM |
| O=S(=O)(c1ccc(OC(F)F)cc1)N1CCN(c2nc(CC(F)(F)F)no2)CC1 [Cmpd167, 5-(4-((4-(Difluoromethoxy)phenyl)sulfonyl)piperazin-1-yl)-3-(2,2,2-trifluoroethyl)-1,2,4-oxadiazole] | 10 µM |
| COc1ccc(S(=O)(=O)N2CCN(c3nc(COc4cccnc4)no3)CC2)cc1 [Cmpd204, 5-(4-((4-Methoxyphenyl)sulfonyl)piperazin-1-yl)-3-((pyridin-3-yloxy)methyl)-1,2,4-oxadiazole] | 0.065 µM |
| CSc1ccc(S(=O)(=O)N2CCN(c3nc(CC(F)(F)F)no3)CC2)cc1 [Cmpd168, 5-(4-((4-(Methylthio)phenyl)sulfonyl)piperazin-1-yl)-3-(2,2,2-trifluoroethyl)-1,2,4-oxadiazole] | 0.198 µM |
| CC(C)(c1ccc(F)cc1)c1noc(N2CCN(S(=O)(=O)c3ccc(OC(F)F)cc3)CC2)n1 [Cmpd114, 1-(4-Difluoromethoxy-benzenesulfonyl)-4-{3-[1-(4-fluoro-phenyl)-1-methyl-ethyl]-[1,2,4]oxadiazol-5-yl}-piperazine] | 0.017 µM |
| COc1ccc(S(=O)(=O)N2CCN(c3nc(CC4CC4)no3)CC2)cc1 [Cmpd159, 3-(Cyclopropylmethyl)-5-(4-((4-methoxyphenyl)sulfonyl)piperazin-1-yl)-1,2,4-oxadiazole] | 0.095 µM |
| CSc1ccc(S(=O)(=O)N2CCN(c3nc(CCC(F)(F)F)no3)CC2)cc1 [Cmpd172, 5-(4-((4-(Methylthio)phenyl)sulfonyl)piperazin-1-yl)-3-(3,3,3-trifluoropropyl)-1,2,4-oxadiazole] | 0.166 µM |
| COc1ccc(S(=O)(=O)N2CCN(c3nc(Cc4cccc(F)c4)no3)CC2)cc1 [Cmpd084, 1-[3-(3-Fluoro-benzyl)-[1,2,4]oxadiazol-5-yl]-4-(4-methoxy-benzenesulfonyl)-piperazine] | 0.005 µM |
| O=S(=O)(c1ccc(OC(F)F)cc1)N1CCN(c2nc(C3(c4ccc(Cl)cc4)CC3)no2)CC1 [Cmpd140, 1-{3-[1-(4-Chloro-phenyl)-cyclopropyl]-[1,2,4]oxadiazol-5-yl}-4-(4-difluoromethoxy-benzenesulfonyl)-piperazine] | 0.044 µM |
| CCOc1ccc(S(=O)(=O)N2CCN(c3nc(C(CC)c4ccccc4)no3)CC2)cc1 (stereo not drawn) [Cmpd045, 1-(4-Ethoxy-benzenesulfonyl)-4-[3-(1-phenyl-propyl)-[1,2,4]oxadiazol-5-yl]-piperazine] | 0.018 µM |
| CSc1ccc(S(=O)(=O)N2CCN(c3nc(C(C)(C)c4cccc(Cl)c4)no3)CC2)cc1 [Cmpd155, 1-{3-[1-(3-Chloro-phenyl)-1-methyl-ethyl]-[1,2,4]oxadiazol-5-yl}-4-(4-methylsulfanyl-benzenesulfonyl)-piperazine] | 0.002 µM |
| CCOc1ccc(S(=O)(=O)N2CCN(c3nc(CC4CC4)no3)CC2)cc1 [Cmpd162, 3-(Cyclopropylmethyl)-5-(4-((4-ethoxyphenyl)sulfonyl)piperazin-1-yl)-1,2,4-oxadiazole] | 0.224 µM |
| CC(C)Oc1ccc(S(=O)(=O)N2CCN(c3nc(Cc4cccc(F)c4)no3)CC2)cc1 [Cmpd093, 1-[3-(3-Fluoro-benzyl)-[1,2,4]oxadiazol-5-yl]-4-(4-isopropoxy-benzenesulfonyl)-piperazine] | 0.326 µM |
| O=S(=O)(c1ccc(OC(F)F)cc1)N1CCN(c2nc(Cc3ccc(Cl)cc3)no2)CC1 [Cmpd054, 1-[3-(4-Chloro-benzyl)-[1,2,4]oxadiazol-5-yl]-4-(4-difluoromethoxy-benzenesulfonyl)-piperazine] | 0.019 µM |
| CCOc1ccc(S(=O)(=O)N2CCN(c3nc(C(F)(F)c4ccc(Cl)cc4)no3)CC2)cc1 [Cmpd143, 1-{3-[(4-Chloro-phenyl)-difluoro-methyl]-[1,2,4]oxadiazol-5-yl}-4-(4-ethoxy-benzenesulfonyl)-piperazine] | 0.025 µM |
| CCCc1noc(N2CCN(S(=O)(=O)c3ccc(OC)cc3)CC2)n1 [Cmpd207, 5-(4-((4-Methoxyphenyl)sulfonyl)piperazin-1-yl)-3-propyl-1,2,4-oxadiazole] | 0.406 µM |
| COc1ccc(S(=O)(=O)N2CCN(c3nc(C(F)(F)c4ccc(Cl)cc4)no3)CC2)cc1 [Cmpd142, 1-{3-[(4-Chloro-phenyl)-difluoro-methyl]-[1,2,4]oxadiazol-5-yl}-4-(4-methoxy-benzenesulfonyl)-piperazine] | 0.024 µM |
